Laboratory results published in patent publication US20050074777A1, “Novel cell-surface estrogen receptor and related compositions and methods” (priority 2002, published 2005).
Entries after “also recorded” stand apart in the source; their conditions may differ. Blank lines part the entries; values can stand above or below the compound they belong to.

Key:
ERK1/2 phosphorylation [1] = conditions: neocortical explants (Singh, 2000); cited from earlier work
ERK1/2 phosphorylation [2] = assay: Phosphorylation of ERK1/2 in ERKO CLM and non-CLM preparations; format: biochemical, mouse; conditions: for phosphorylation of ERK1/2: 30 minutes
Description: Phosphorylation of ERK1/2 in CLM and non-CLM preparations. Phosphorylation of ERK1/2 in ERKO CLM and non-CLM preparations was examined following the method of Liu et al. (Liu, 1997), except that basal medium Eagle (BME) was used in the place of MEM. Nine parts of CLM or non-CLM preparations were mixed with one part of 10×BME, pH 7.4 containing BSA 800 μg/ml, 10 mM NaF, 2 mM Na3VO4, leupeptin 100 μg/ml, soybean trypsin inhibitor 100 μg/ml, 10 mM MgCl2, and 1 mM ATP. […] Cell Signaling Technology, Beverly, Mass.) for 30 minutes prior to pulsing them with the appropriate estradiol. […] (Singh, 1999; and Singh, 2000).

[3] = system: ER-X (plasma-membrane estrogen binding site of P7 ERKO neocortex); assay: Specificity (competition) of 3H-estradiol binding in Percoll-purified P7 ERKO neocortical membranes; set-up: species or system mouse; conditions: 2 nM 3H-estradiol, 18 hours at 4° C.
Description: Binding of ^3H estradiol to Percoll®-purified plasma-membranes from P7 ERKO and wild-type mouse neocortex. (a) Identical amounts of membrane protein (50 μg/tube) were incubated with varying concentrations of ^3H estradiol (0.3-8 nM) for 18 hours at 4° C. The reaction was terminated by addition of hydroxylapatite (HAP). The membranes and HAP were sedimented by centrifugation in a microfuge, and the pellet washed 4 times to remove free steroid. Radioactivity in the pellets was extracted with ethanol and counted. […] (b) Specificity of the binding site in Percoll®-purified membranes from P7 ERKO mouse neocortex. […] Bound ^3H estradiol was separated by sedimentation with HAP and counted at an efficiency of 50%. Data represent the number of bound counts (after subtraction of HAP-only blank control tubes, containing no membrane protein) expressed as the means +/−S.D. of triplicate determinations. The horizontal dashed line indicates the level of non-specific binding observed in the presence of 1 μM DES. Estrogen binding assay. Duplicate aliquots of 1 mg each of protein lysate from ERKO P7 neocortex or wild-type adult uterus were pre-cleared for 30 minutes using anti-rabbit-IgG-coated magnetic beads (Dynal AS). Pre-cleared protein lysates were immunoprecipitated with anti-ER-α antibodies (6F11, Novocastra; or MC20, Santa Cruz) at 4° C. overnight. […] NEN Life Sciences, Boston, Mass.) at 4° C. for 18 hours. The incubation was terminated by adsorption of the binding sites onto an equal volume of hydroxylapatite (HAP) slurry in TESD buffer. HAP pellets were washed four times with Tris-buffered saline containing 0.2% Tween-20 buffer and extracted with 1 ml absolute ethanol overnight at room temperature. The ethanol supernatants were transferred to liquid scintillation fluid (5 ml) and counted. Control tubes, used in assessing HAP adsorption of free steroid, contained HAP and the same buffer constituents, without addition of the membranes. Non-specific binding was assayed in the membranes using the same amount of radioactive ligand plus 200-fold molar excess of unlabeled diethylstilbestrol (DES) (Sigma-Aldrich). Specific binding was calculated by subtracting non-specific from total binding.

ERK1/2 phosphorylation [4] = assay: ERK1/2 phosphorylation in post-nuclear supernatant (PNS), cell-free system; format: biochemical, mouse; conditions: for phosphorylation of ERK1 and ERK2: P7 wild-type neocortical PNS, 10 minutes, 37° C.
Source text: Isolation of post-nuclear supernatant (PNS). To increase the yield of ER-X and to test in a cell-free system whether the presence of ER-α is inhibitory for ERK activation, as had been shown previously in neocortical cultures (Singh, 2000), PNS, a cell-free system which contains all the cell organelles except the nucleus, was studied. PNS was isolated from P7 wild-type and ERKO neocortices according to the method of Smart et al. (Smart, 1995). Three to four P7 wild-type and ERKO neocortices were homogenized using a teflon homogenizer in 1 ml of 20 mM Tricine, pH 7.8 buffer, containing 1 mM EDTA, 0.25M sucrose, 10 μg/ml aprotinin and 1 μg/ml leupeptin. The homogenate was centrifuged at 1000×g at 4° C. for 10 minutes. The supernatant obtained is the PNS. The pellet was resuspended in 500 μl of the homogenization buffer, re-centrifuged, and the PNS obtained was pooled with the first PNS. ERKO and wild-type PNS were mixed with 10X phosphorylation buffer, and the MAPK assay was performed as described above.

ERK1/2 phosphorylation [5] = assay: ERK1/2 phosphorylation in neocortical explant cultures (Western immunoblot); format: cell-based, mouse; conditions: wild-type neocortical cultures
Description: Neocortical cultures. Organotypic explant cultures, obtained from 360 pm hemi-coronal slices of the frontal and cingulate neocortex of P2 wild-type and ERKO mice (day of birth =P1), were explanted onto collagen-coated, poly-D-lysine pre-coated coverslips and maintained in roller tube culture with gonadal steroid-deficient (gelding serum) and phenol red-free nutrient medium, as previously described (Singh, 1999; and Singh, 2000). The nutrient medium was supplemented with 17β-estradiol (2 nM; Sigma-Aldrich, St. Louis, Mo.) for one week, in order to optimize the development of CNS cultures from estrogen target regions. […]
Antibody binding to protein was detected using a secondary antibody conjugated to horseradish peroxidase (1:40,000; Pierce Chemical Company, Rockford, Ill.), and visualized autoradiographically on film using enzyme-linked chemiluminescence (ECL®; Amersham Pharmacia Biotech) (Singh et, 1999; and Singh, 2000). All blots were stripped and re-probed with the appropriate antibody to verify equal loading of protein across lanes and were analyzed densitometrically. […]

[6] = system: estrogen-binding protein (ER-X); assay: DES-sensitive 3H-estradiol binding in CLM preparations and lysates; set-up: species or system mouse; conditions: unlabeled competitor in excess
Description: Caveolar-like membrane (CLM) preparation. Membrane fractions were prepared by adapting the detergent-free method of Smart et al. (Smart, 1995). Briefly, pools of 40-50 P7 ERKO neocortices were homogenized in 20 mM Tricine, pH 7.8 buffer, containing 1 mM EDTA, 0.25M sucrose and 1 mM dithiothreitol (TESD buffer), then centrifuged at 1000×g at 4° C. for 10 minutes. The pellet was resuspended in TESD buffer, re-centrifuged, and the supernatants pooled. The combined supernatants were subjected to Percoll® gradient fractionation in the same buffer to isolate the plasma membrane fraction. In some binding experiments (indicated below), Percoll® purified plasma membranes were used without further fractionation. For preparation of CLMs, plasma-membranes were sonicated and further separated by centrifugation on a linear 20% to 10% OptiPrep (iodixanol) gradient (Nycomed Pharma AS, Oslo, Norway). Based upon their light buoyant density, CLMs were separated and purified from non-CLMs using two OptiPrep density gradients. […] Electrophoretically separated CLMs on PVDF membranes were probed with antibodies specific for ER-α ([…], UBI; MC20, Santa Cruz), ER-β (Zymed), flotillin (BD Transduction Labs) and other caveolar-resident proteins (PKC-α and PKC-γ, BD Transduction Labs) and non-caveolar-resident proteins (paxillin, BD Transduction Labs). Estrogen binding assay. Duplicate aliquots of 1 mg each of protein lysate from ERKO P7 neocortex or wild-type adult uterus were pre-cleared for 30 minutes using anti-rabbit-IgG-coated magnetic beads (Dynal AS). Pre-cleared protein lysates were immunoprecipitated with anti-ER-α antibodies (6F11, Novocastra; or MC20, Santa Cruz) at 4° C. overnight. […] NEN Life Sciences, Boston, Mass.) at 4° C. for 18 hours. The incubation was terminated by adsorption of the binding sites onto an equal volume of hydroxylapatite (HAP) slurry in TESD buffer. HAP pellets were washed four times with Tris-buffered saline containing 0.2% Tween-20 buffer and extracted with 1 ml absolute ethanol overnight at room temperature. The ethanol supernatants were transferred to liquid scintillation fluid (5 ml) and counted. Control tubes, used in assessing HAP adsorption of free steroid, contained HAP and the same buffer constituents, without addition of the membranes. Non-specific binding was assayed in the membranes using the same amount of radioactive ligand plus 200-fold molar excess of unlabeled diethylstilbestrol (DES) (Sigma-Aldrich). Specific binding was calculated by subtracting non-specific from total binding.

ERK1/2 phosphorylation [7] = assay: Cholesterol depletion: ERK1/2 phosphorylation in neocortical explants pre-treated with Nystatin; format: cell-based, mouse; conditions: P9 wild-type neocortical explants, 50 μg/ml for 1 hour before a 30 minute pulse
Description: Cholesterol depletion. To determine whether disruption of CLMs impairs estrogen activation of the MAPK cascade, neocortical explants were pre-treated on P9 with the sterol binding agent Nystatin (50 μg/ml) (Sigma-Aldrich), a compound used extensively to document the association of growth factor receptors with caveolae/CLMs (Huang, 1999). […] P9 neocortical explants were exposed to Nystatin (50 μg/ml) (Sigma-Aldrich), BDNF (10 ng/ml) or vehicle control (PBS) for 1 hour prior to pulsing with 10 nM 17β-estradiol for 30 minutes in the continued presence of Nystatin, BDNF or vehicle. Explants were then analyzed by Western immunoblot analysis for phospho-ERK expression using antibodies to phosphorylated p44/42 MAP Kinase (ERK1/2, Thr202/Tyr204; Cell Signaling Technology), as previously described (Singh, 1999; and Singh, 2000).

[8] = 1 μM unlabelled competitor (500-fold molar excess)

Compound: C[C@]12CC[C@@H]3c4ccc(O)cc4CC[C@H]3[C@@H]1C[C@@H](I)[C@@H]2O [16α-iodo-17β-estradiol]
activation of ERK1/2 by ER-α- or ER-β-selective ligands (ERK1/2 phosphorylation [1]): not activated

inhibition of binding of 3H-estradiol ([3]; 50 nM unlabelled competitor): markedly inhibited | inhibition of binding of 3H-estradiol [3, 8]: reduced to the non-specific levels
Compound: C[C@]12CC[C@@H]3c4ccc(O)cc4CC[C@H]3[C@@H]1CC[C@H]2O [17α-estradiol]
phosphorylation of ERK1/2 (ERK1/2 phosphorylation [2]; P7 ERKO neocortical CLMs, 0.1 nM): elicited phosphorylation of ERK1/2 | phosphorylation of ERK1/2 (ERK1/2 phosphorylation [2]; non-CLM regions of the plasma membrane, 0.1 nM): did not respond | phosphorylation of ERK1 and ERK2 (ERK1/2 phosphorylation [4]; 0.1 nM): elicited MEK-dependent (U0126) phosphorylation of ERK1 and ERK2

inhibition of binding of 3H-estradiol ([3]; 50 nM unlabelled competitor): markedly inhibited | inhibition of binding of 3H-estradiol [3, 8]: reduced to the non-specific levels
Compound: C[C@]12CC[C@@H]3c4ccc(O)cc4CC[C@H]3[C@@H]1CC[C@@H]2O [17β-estradiol]
concentration range eliciting activation of ERK1/2 (ERK1/2 phosphorylation [5]): 0.1 to 10 nM | phosphorylation of ERK1/2 (ERK1/2 phosphorylation [2]; P7 ERKO neocortical CLMs, 10 nM): elicited phosphorylation of ERK1/2 | phosphorylation of ERK1/2 (ERK1/2 phosphorylation [2]; non-CLM regions of the plasma membrane, 10 nM): did not respond | phosphorylation of ERK1 and ERK2 (ERK1/2 phosphorylation [4]; 10 nM): significantly less than the levels following exposure to 17α-estradiol; also recorded: elicited MEK-dependent (U0126) phosphorylation of ERK1 and ERK2

effect on binding of 10 nM 3H-estradiol to P7 ERKO CLMs [6]: suppressed
Compound: CC/C(=C(/CC)c1ccc(O)cc1)c1ccc(O)cc1 [DES, diethylstilbestrol]

Compound: C[C@@H]1[C@H](O)[C@@H](C)/C=C/C=C/CC/C=C/C=C/C=C/C=C/C(O[C@H]2O[C@H](C)[C@@H](O)[C@H](N)[C@@H]2O)CC2O[C@](O)(CC(O)C(O)CCC(O)CC(O)CC(O)CC(=O)O[C@H]1C)CC(O)C2C(=O)O (stereo partly shown) [Nystatin]
effect on ERK1/2 phosphorylation elicited by 17β-estradiol (10 nM) and BDNF (ERK1/2 phosphorylation [7]): decreased the ability of both estradiol and BDNF to elicit ERK1/2 phosphorylation

Compound: N#CC(=C(/N)Sc1ccccc1N)/C(C#N)=C(\N)Sc1ccccc1N [U0126]
effect on estradiol-induced ERK activation (ERK1/2 phosphorylation [2]; P7 ERKO neocortical CLMs, 10 μM, 30 minutes pre-treatment): inhibited | effect on estradiol-induced ERK1/2 phosphorylation (ERK1/2 phosphorylation [4]; wild-type neocortical PNS, 10 μM): inhibited

Compound: O=c1oc2cc(O)ccc2c2oc3cc(O)ccc3c12 [coumestrol]
activation of ERK1/2 by ER-α- or ER-β-selective ligands (ERK1/2 phosphorylation [1]): not activated

Compound: O=c1c(-c2ccc(O)cc2)coc2cc(O)cc(O)c12 [genistein]
activation of ERK1/2 by ER-α- or ER-β-selective ligands (ERK1/2 phosphorylation [1]): not activated

inhibition of binding of 3H-estradiol [3, 8]: only partially suppressing binding
Compound: CC(=O)[C@H]1CC[C@H]2[C@@H]3CCC4=CC(=O)CC[C@]4(C)[C@H]3CC[C@]12C [progesterone]
